Patent US20260240858A1, “ORAL FORMULATIONS, METHODS OF MANUFACTURE AND USES THEREOF” (Agency For Science, Technology And Research, priority 2019, published 2026)
Read-outs that look alike come from different tables or passages of the source.

What was measured:
Moisture sorption = assay type: physicochemical; conditions: at above 90% RH
[1] = Permeability of compound of Formula (I)
[2] = Degradation in water with and without SLS; assay type: physicochemical; conditions: after 24 h at 25° C.
[3] = Particle size by dynamic light scattering; assay type: physicochemical
[4] = Solubility of compound of Formula (I) in water, buffers and surfactant solutions; assay type: physicochemical
Method: In water, compound of Formula (I) has a solubility of about 6 μg/mL. At pH 6, the solubility is about 5 μg/mL.

[5] = Flow properties (bulk density, tapped density, Carr's index); assay type: physicochemical; conditions: API alone
Excerpt: Magnesium stearate was included to prevent sticking of the blend to the encapsulator contact parts (Torpac).

water uptake (Moisture sorption): about 1%
permeability [1]: low
degradation ([2]; In water): about 40%
degradation ([2]; water with 2% w/v SLS): no (or minimal) degradation
d10 [3]: 2-5 μm
d50 [3]: 10-30 μm
d90 [3]: 35-55 μm
solubility ([4]; 2% w/v SLS in water, pH 8.82, aqueous with cosolvent or surfactant or cyclodextrin, thermodynamic from solid, 2% w/v SLS is water, pH after equilibration 8.82, read-out: Solubility Sample-1): 458 µg/mL
solubility ([4]; 2% w/v SLS in water, pH 8.82, aqueous with cosolvent or surfactant or cyclodextrin, thermodynamic from solid, 2% w/v SLS is water, pH after equilibration 8.82, read-out: Solubility Sample-2): 429 µg/mL
solubility ([4]; 2% w/v Tween 80 in pH 3.0 buffer, pH 3, aqueous with cosolvent or surfactant or cyclodextrin, thermodynamic from solid, 2% w/v Tween 80 in pH 3.0 buffer, pH after equilibration 3.16, read-out: Solubility Average (n = 2)): 25.2 µg/mL
solubility ([4]; 2% w/v Tween 80 in pH 3.0 buffer, pH 3, aqueous with cosolvent or surfactant or cyclodextrin, thermodynamic from solid, 2% w/v Tween 80 in pH 3.0 buffer, pH after equilibration 3.16, read-out: Solubility Sample-1): 23.8 µg/mL
solubility ([4]; 2% w/v Tween 80 in pH 3.0 buffer, pH 3, aqueous with cosolvent or surfactant or cyclodextrin, thermodynamic from solid, 2% w/v Tween 80 in pH 3.0 buffer, pH after equilibration 3.16, read-out: Solubility Sample-2): 26.7 µg/mL
solubility ([4]; 2% w/v Tween 80 in water, pH 7.72, aqueous with cosolvent or surfactant or cyclodextrin, thermodynamic from solid, 2% w/v Tween 80 in water, pH after equilibration 7.72, read-out: Solubility Average (n = 2)): 22.8 µg/mL
solubility ([4]; 2% w/v Tween 80 in water, pH 7.72, aqueous with cosolvent or surfactant or cyclodextrin, thermodynamic from solid, 2% w/v Tween 80 in water, pH after equilibration 7.72, read-out: Solubility Sample-1): 22.4 µg/mL
solubility ([4]; 2% w/v Tween 80 in water, pH 7.72, aqueous with cosolvent or surfactant or cyclodextrin, thermodynamic from solid, 2% w/v Tween 80 in water, pH after equilibration 7.72, read-out: Solubility Sample-2): 23.2 µg/mL
solubility ([4]; 5% w/v PVP K 30 in pH 1.2 buffer, pH 1.2, aqueous with cosolvent or surfactant or cyclodextrin, thermodynamic from solid, 5% w/v PVP K 30 in pH 1.2 buffer, pH after equilibration 1.25, read-out: Solubility Average (n = 2)): 35 µg/mL
solubility ([4]; 5% w/v PVP K 30 in pH 1.2 buffer, pH 1.2, aqueous with cosolvent or surfactant or cyclodextrin, thermodynamic from solid, 5% w/v PVP K 30 in pH 1.2 buffer, pH after equilibration 1.25, read-out: Solubility Sample-1): 34.8 µg/mL
solubility ([4]; 5% w/v PVP K 30 in pH 1.2 buffer, pH 1.2, aqueous with cosolvent or surfactant or cyclodextrin, thermodynamic from solid, 5% w/v PVP K 30 in pH 1.2 buffer, pH after equilibration 1.25, read-out: Solubility Sample-2): 35.2 µg/mL
solubility ([4]; 5% w/v PVP K 30 in pH 3.0 buffer, pH 3, aqueous with cosolvent or surfactant or cyclodextrin, thermodynamic from solid, 5% w/v PVP K 30 in pH 3.0 buffer, pH after equilibration 3.12, read-out: Solubility Average (n = 2)): 17.9 µg/mL
solubility ([4]; 5% w/v PVP K 30 in pH 3.0 buffer, pH 3, aqueous with cosolvent or surfactant or cyclodextrin, thermodynamic from solid, 5% w/v PVP K 30 in pH 3.0 buffer, pH after equilibration 3.12, read-out: Solubility Sample-1): 19.9 µg/mL
solubility ([4]; 5% w/v PVP K 30 in pH 3.0 buffer, pH 3, aqueous with cosolvent or surfactant or cyclodextrin, thermodynamic from solid, 5% w/v PVP K 30 in pH 3.0 buffer, pH after equilibration 3.12, read-out: Solubility Sample-2): 15.8 µg/mL
solubility ([4]; 5% w/v PVP K 30 in water, pH 3.96, aqueous with cosolvent or surfactant or cyclodextrin, thermodynamic from solid, 5% w/v PVP K 30 in water, pH after equilibration 3.96, read-out: Solubility Average (n = 2)): 15.8 µg/mL
solubility ([4]; 5% w/v PVP K 30 in water, pH 3.96, aqueous with cosolvent or surfactant or cyclodextrin, thermodynamic from solid, 5% w/v PVP K 30 in water, pH after equilibration 3.96, read-out: Solubility Sample-1): 18.1 µg/mL
solubility ([4]; 5% w/v PVP K 30 in water, pH 3.96, aqueous with cosolvent or surfactant or cyclodextrin, thermodynamic from solid, 5% w/v PVP K 30 in water, pH after equilibration 3.96, read-out: Solubility Sample-2): 13.5 µg/mL
solubility ([4]; 20% w/v SLS in pH 1.2 buffer, pH 1.2, aqueous with cosolvent or surfactant or cyclodextrin, thermodynamic from solid, 20% w/v SLSixpB 1.2 buffer, pH after equilibration 1.33, read-out: Solubility Average (n = 2)): 2020 µg/mL
solubility ([4]; 20% w/v SLS in pH 1.2 buffer, pH 1.2, aqueous with cosolvent or surfactant or cyclodextrin, thermodynamic from solid, 20% w/v SLSixpB 1.2 buffer, pH after equilibration 1.33, read-out: Solubility Sample-1): 1860 µg/mL
solubility ([4]; 20% w/v SLS in pH 1.2 buffer, pH 1.2, aqueous with cosolvent or surfactant or cyclodextrin, thermodynamic from solid, 20% w/v SLSixpB 1.2 buffer, pH after equilibration 1.33, read-out: Solubility Sample-2): 2170 µg/mL
solubility ([4]; 28% w/v SLS in pH 3.0 buffer, pH 3, aqueous with cosolvent or surfactant or cyclodextrin, thermodynamic from solid, 28% w/v SL.S in pH 3.0 baffer, pH after equilibration 2.95, read-out: Solubility Average (n = 2)): 404 µg/mL
solubility ([4]; 28% w/v SLS in pH 3.0 buffer, pH 3, aqueous with cosolvent or surfactant or cyclodextrin, thermodynamic from solid, 28% w/v SL.S in pH 3.0 baffer, pH after equilibration 2.95, read-out: Solubility Sample-1): 394 µg/mL
solubility ([4]; 28% w/v SLS in pH 3.0 buffer, pH 3, aqueous with cosolvent or surfactant or cyclodextrin, thermodynamic from solid, 28% w/v SL.S in pH 3.0 baffer, pH after equilibration 2.95, read-out: Solubility Sample-2): 415 µg/mL
solubility ([4]; 29% w/v Tween 80 in pH 1.2 buffer, pH 1.2, aqueous with cosolvent or surfactant or cyclodextrin, thermodynamic from solid, 29% w/v Tween 80 in pH 1.2 buffer, pH after equilibration 1.25, read-out: Solubility Average (n = 2)): 37.2 µg/mL
solubility ([4]; 29% w/v Tween 80 in pH 1.2 buffer, pH 1.2, aqueous with cosolvent or surfactant or cyclodextrin, thermodynamic from solid, 29% w/v Tween 80 in pH 1.2 buffer, pH after equilibration 1.25, read-out: Solubility Sample-1): 37.3 µg/mL
solubility ([4]; 29% w/v Tween 80 in pH 1.2 buffer, pH 1.2, aqueous with cosolvent or surfactant or cyclodextrin, thermodynamic from solid, 29% w/v Tween 80 in pH 1.2 buffer, pH after equilibration 1.25, read-out: Solubility Sample-2): 37.1 µg/mL
solubility ([4]; 50% w/v Poloxamer 188 in pH 1.2 buffer, pH 1.2, aqueous with cosolvent or surfactant or cyclodextrin, thermodynamic from solid, 50% w/v Poloxamer 188 in pH 1.2 buffer, pH after equilibration 1.25, read-out: Solubility Average (n = 2)): 35.5 µg/mL
solubility ([4]; 50% w/v Poloxamer 188 in pH 1.2 buffer, pH 1.2, aqueous with cosolvent or surfactant or cyclodextrin, thermodynamic from solid, 50% w/v Poloxamer 188 in pH 1.2 buffer, pH after equilibration 1.25, read-out: Solubility Sample-1): 35.6 µg/mL
solubility ([4]; 50% w/v Poloxamer 188 in pH 1.2 buffer, pH 1.2, aqueous with cosolvent or surfactant or cyclodextrin, thermodynamic from solid, 50% w/v Poloxamer 188 in pH 1.2 buffer, pH after equilibration 1.25, read-out: Solubility Sample-2): 35.4 µg/mL
solubility ([4]; 50% w/v Poloxamer 188 in water, pH 7.23, aqueous with cosolvent or surfactant or cyclodextrin, thermodynamic from solid, 50% w/v Poloxamer 188 in water, pH after equilibration 7.23, read-out: Solubility Average (n = 2)): 9.63 µg/mL
solubility ([4]; 50% w/v Poloxamer 188 in water, pH 7.23, aqueous with cosolvent or surfactant or cyclodextrin, thermodynamic from solid, 50% w/v Poloxamer 188 in water, pH after equilibration 7.23, read-out: Solubility Sample-1): 10.9 µg/mL
solubility ([4]; 50% w/v Poloxamer 188 in water, pH 7.23, aqueous with cosolvent or surfactant or cyclodextrin, thermodynamic from solid, 50% w/v Poloxamer 188 in water, pH after equilibration 7.23, read-out: Solubility Sample-2): 8.39 µg/mL
solubility ([4]; 59% w/v Poloxamer 188 in pH 3.0 buffer, pH 3, aqueous with cosolvent or surfactant or cyclodextrin, thermodynamic from solid, 59% w/v Poloxamer 188 in pH 3.0 buffer, pH after equilibration 3.30, read-out: Solubility Average (n = 2)): 18.3 µg/mL
solubility ([4]; 59% w/v Poloxamer 188 in pH 3.0 buffer, pH 3, aqueous with cosolvent or surfactant or cyclodextrin, thermodynamic from solid, 59% w/v Poloxamer 188 in pH 3.0 buffer, pH after equilibration 3.30, read-out: Solubility Sample-1): 18.7 µg/mL
solubility ([4]; 59% w/v Poloxamer 188 in pH 3.0 buffer, pH 3, aqueous with cosolvent or surfactant or cyclodextrin, thermodynamic from solid, 59% w/v Poloxamer 188 in pH 3.0 buffer, pH after equilibration 3.30, read-out: Solubility Sample-2): 17.9 µg/mL
solubility ([4]; citrate buffer, pH 3, aqueous buffer, thermodynamic from solid, pH 3.0 (Citrate buffer), read-out: Solubility Average (n = 2)): 7.77 µg/mL
solubility ([4]; citrate buffer, pH 3, aqueous buffer, thermodynamic from solid, pH 3.0 (Citrate buffer), read-out: Solubility Sample-1): 7.76 µg/mL
solubility ([4]; citrate buffer, pH 3, aqueous buffer, thermodynamic from solid, pH 3.0 (Citrate buffer), read-out: Solubility Sample-2): 7.78 µg/mL
solubility ([4]; hydrochloric acid buffer, pH 1.2, simulated gastric fluid, thermodynamic from solid, pH 1.2 (Hydrochloric acid buffer), read-out: Solubility Average (n = 2)): 20.8 µg/mL
solubility ([4]; hydrochloric acid buffer, pH 1.2, simulated gastric fluid, thermodynamic from solid, pH 1.2 (Hydrochloric acid buffer), read-out: Solubility Sample-1): 20.8 µg/mL
solubility ([4]; hydrochloric acid buffer, pH 1.2, simulated gastric fluid, thermodynamic from solid, pH 1.2 (Hydrochloric acid buffer), read-out: Solubility Sample-2): 20.9 µg/mL
solubility ([4]; pH 2, simulated gastric fluid, At pH 2, read-out: solubility): ~8.4 µg/mL
solubility ([4]; pH 4, aqueous buffer, At pH 4, read-out: solubility): ~6.4 µg/mL
solubility ([4]; pH 6, aqueous buffer, At pH 6, read-out: solubility): ~5 µg/mL
solubility ([4]; water, In water, read-out: solubility): ~6 µg/mL
solubility ([4]; water, in water, read-out: solubility): < 6 µg/mL
solubility ([4]; water, pH 7.95, water, thermodynamic from solid, Water, pH after equilibration 7.95, read-out: Solubility Average (n = 2)): 5.99 µg/mL
solubility ([4]; water, pH 7.95, water, thermodynamic from solid, Water, pH after equilibration 7.95, read-out: Solubility Sample-1): 6 µg/mL
solubility ([4]; water, pH 7.95, water, thermodynamic from solid, Water, pH after equilibration 7.95, read-out: Solubility Sample-2): 5.97 µg/mL
flow properties of the API [5]: poor flow properties
Structure (SMILES): Cn1c(=O)c2c(ncn2CC(=O)Nc2ccc(-c3ccccc3)nn2)n(C)c1=O [compound of Formula (I)]
